Laboratory results taken from publication PMC8148468, “Shikimic acid protects skin cells from UV-induced senescence through activation of the NAD+-dependent deacetylase SIRT1” (Aging (Albany NY), 2021).

system: primary human dermal fibroblasts (HDFs); test: not given; conditions: not given
Excerpt: In our efforts to identify novel factors that could prevent skin cell senescence, we developed a screening process to identify new modulators of the protective role of sirtuins in UV-induced senescence. For this purpose, we established a culture of primary human dermal fibroblasts (HDFs). […] Our first step in the screening was to establish the optimal concentrations of these compounds in the case of HDFs. […] Once established, we took these parameters into account to decide the specific working range of concentrations for each compound.
Human dermal fibroblasts (HDFs) (Promocell, Germany) from 40-year old Caucasian women were used as the in vitro model for compound viability and efficacy screening. Cells were cultured in Dulbecco's modified eagle medium (DMEM) low glucose (Biowest, France) supplemented with 10% fetal bovine serum (FBS) (Capricorn Scientific, Germany) and 10 U/mL penicillin/streptomycin (Biowest, France) in a humidified incubator at 37° C and 5% CO2. For cell passage, cells at 80% confluence were trypsinized and plated at 60% confluence. Cells between passage 13 and 18 were used for the assays. For the SIRT1 in vitro assay, HEK293 cells (ATCC, USA), used to transfect and immunoprecipitate SIRT1 protein, were grown in DMEM high glucose (Thermo Fisher Scientific, USA), supplemented with 10% FBS in a humidified incubator at 37° C and 5% CO2. The following experiments were all performed in triplicate.
(§1) The protocol for senescence induction using UVB irradiation is described in the Supplementary Methods. SA-β-Gal staining, WST-1, sulforhodamine B (SRB) and trypan blue assays were performed as previously described. For the siRNA experiments, the protocol for senescence induction using UVB irradiation was the same as in the Supplementary Methods. Specific siRNA (Horizon discovery, UK) for SIRT1, SIRT2, SIRT6, BiP or scramble siRNA were incubated for 6 hours before each irradiation step.

| SMILES | Max. non-cyt. doses |
| --- | --- |
| O=C(O)CCCC[C@@H]1CCSS1 (racemic) [Lipoic acid] | 1 mM |
| C/C=C/C(=O)C1=C(C)C=CCC1(C)C [Damascenone] | 0.05 mM |
| CC1=NCC[C@@H](C(=O)O)N1 [Ectoine] | 300 mM |
| COc1cc(/C=C/C(=O)O)ccc1O [Ferulic acid] | 7.5 mM |

same assay, conditions: HDFs, WST-1 cell viability test

| SMILES | LD50 |
| --- | --- |
| O=Cc1ccc(O)c(O)c1 [3,4-dihydroxybenzaldehyde] | 1.08 mM |
| C=C1CC[C@@H]2[C@](C)(CO)[C@H](O)CC[C@@]2(C)[C@@H]1C/C=C1/C(=O)OC[C@H]1O [Andrographolide] | 0.124 mM |
| C[N+](C)(C)CC(=O)O [Betaine] | 507.81 mM |
| NCCC(=O)N[C@@H](Cc1cnc[nH]1)C(=O)O [Carnosine] | 85.46 mM |
| C/C=C/C(=O)C1=C(C)C=CCC1(C)C [Damascenone] | 0.121 mM |
| CC1=NCC[C@@H](C(=O)O)N1 [Ectoine] | 359.12 mM |
| COc1cc(/C=C/C(=O)O)ccc1O [Ferulic acid] | 16.5 mM |
| C=C[C@@H]1C2=CCOC(=O)C2=CO[C@H]1O[C@@H]1O[C@H](CO)[C@@H](O)[C@H](O)[C@H]1O [Gentiopicrin] | 13.825 mM |
| COc1cc(-c2coc3cc4c(c(OC)c3c2=O)OCO4)cc(OC)c1OC [Irisflorentin] | 0.049 mM |

same assay, conditions: HDFs, WST-1 cell viability test, maximum non-cytotoxic dose

| SMILES | Max. non-cyt. doses |
| --- | --- |
| O=Cc1ccc(O)c(O)c1 [3,4-dihydroxybenzaldehyde] | 0.1 mM |
| C=C1CC[C@@H]2[C@](C)(CO)[C@H](O)CC[C@@]2(C)[C@@H]1C/C=C1/C(=O)OC[C@H]1O [Andrographolide] | 0.01 mM |
| C[N+](C)(C)CC(=O)O [Betaine] | 50 mM |
| NCCC(=O)N[C@@H](Cc1cnc[nH]1)C(=O)O [Carnosine] | 25 mM |
| COc1cc(-c2coc3cc4c(c(OC)c3c2=O)OCO4)cc(OC)c1OC [Irisflorentin] | 0.01 mM |

same assay, conditions: female, human

| SMILES | Max. non-cyt. doses |
| --- | --- |
| C=C[C@@H]1C2=CCOC(=O)C2=CO[C@H]1O[C@@H]1O[C@H](CO)[C@@H](O)[C@H](O)[C@H]1O [Gentiopicrin] | 2.5 mM |

system: H4K16ac (the target of SIRT1 and SIRT2); test: Sirtuin activity assay in HDF: H4K16ac levels (Western blot); type: cell-based, human; conditions: HDF treated 24h; on SIRT1,2 H4K16ac: key: ↑: increase; ↓: decrease; hyphens that indicate no effect (-)
Protocol: (§2) Figure 1 (A) Schematic representation of the compound testing for sirtuin activity evaluation in HDF. Cells were treated with or without the compounds for 24h and harvested for analysis. […] (C) Western Blot analysis and (D) quantification of H4K16ac and H3K9ac levels in cells treated with Resveratrol or Shikimic acid at the indicated concentrations. H4K16 and H3K9 levels were normalized to H4 and H3 levels respectively. Student T-test, *p<0.05, **p<0.01, ***p<0.001.
(§3) HDFs were plated in 100x20 mm2 cell culture plates and after 24h, fresh cell culture medium containing the compounds was added. After 24h, cells were detached with cell scrapers, harvested, and processed for qPCR or western blot.
(§4) Protein levels were analyzed as previously described. Cells were directly lysed in 1x Laemmli Buffer (Bio-Rad, USA), incubated at 95° C and centrifuged. Supernatant was subjected to SDS-polyacrylamide gel electrophoresis, and successive steps were performed as described. The list of antibodies used is included in Supplementary Table 2.

| SMILES | effect on H4K16ac levels |
| --- | --- |
| O=Cc1ccc(O)c(O)c1 [3,4-dihydroxybenzaldehyde] | induced a similar effect on both targets |
| C=C1CC[C@@H]2[C@](C)(CO)[C@H](O)CC[C@@]2(C)[C@@H]1C/C=C1/C(=O)OC[C@H]1O [Andrographolide] | induced a similar effect on both targets |

same assay, conditions: HDF treated 24h, Figure 1B

| SMILES | SIRT1,2 H4K16ac |
| --- | --- |
| O=C(O)CCCC[C@@H]1CCSS1 (racemic) [Lipoic acid] | - |
| C[N+](C)(C)CC(=O)O [Betaine] | - |
| NCCC(=O)N[C@@H](Cc1cnc[nH]1)C(=O)O [Carnosine] | - |
| C/C=C/C(=O)C1=C(C)C=CCC1(C)C [Damascenone] | - |
| CC1=NCC[C@@H](C(=O)O)N1 [Ectoine] | - |
| COc1cc(/C=C/C(=O)O)ccc1O [Ferulic acid] | - |
| COc1cc(-c2coc3cc4c(c(OC)c3c2=O)OCO4)cc(OC)c1OC [Irisflorentin] | - |

system: H3K9ac (the target of SIRT1, SIRT2 and SIRT6); test: Sirtuin activity assay in HDF: H3K9ac levels (Western blot); type: cell-based, human; conditions: HDF treated 24h; on SIRT1,2,6 H3K9ac: key: ↑: increase; ↓: decrease; hyphens that indicate no effect (-)
Protocol: as §2, §3, §4

| SMILES | effect on H3K9ac levels |
| --- | --- |
| O=Cc1ccc(O)c(O)c1 [3,4-dihydroxybenzaldehyde] | induced a similar effect on both targets |
| C=C1CC[C@@H]2[C@](C)(CO)[C@H](O)CC[C@@]2(C)[C@@H]1C/C=C1/C(=O)OC[C@H]1O [Andrographolide] | induced a similar effect on both targets |
| CC1=NCC[C@@H](C(=O)O)N1 [Ectoine] | reduced the levels of H3K9ac only |

same assay, conditions: HDF treated 24h, Figure 1B

| SMILES | SIRT1,2,6 H3K9ac |
| --- | --- |
| O=C(O)CCCC[C@@H]1CCSS1 (racemic) [Lipoic acid] | - |
| C[N+](C)(C)CC(=O)O [Betaine] | - |
| NCCC(=O)N[C@@H](Cc1cnc[nH]1)C(=O)O [Carnosine] | - |
| C/C=C/C(=O)C1=C(C)C=CCC1(C)C [Damascenone] | - |
| COc1cc(/C=C/C(=O)O)ccc1O [Ferulic acid] | - |
| C=C[C@@H]1C2=CCOC(=O)C2=CO[C@H]1O[C@@H]1O[C@H](CO)[C@@H](O)[C@H](O)[C@H]1O [Gentiopicrin] | - |
| COc1cc(-c2coc3cc4c(c(OC)c3c2=O)OCO4)cc(OC)c1OC [Irisflorentin] | - |

system: UVB-irradiated human dermal fibroblasts (HDFs); test: UVB-induced senescence assay: SA-β-Gal staining; type: cell-based; conditions: HDF, 2 cycles of UVB, compound day 1 to 7, Figure 2B; on β-Gal: key: ↑: increase; ↓: decrease; hyphens that indicate no effect (-)
Protocol: (§5) In the second approach, we established a method for inducing senescence in these cells with 2 cycles of UVB irradiation 72h apart (Figure 2A). The use of UVA to induce senescence was discarded due to its considerably longer time requirement, being unsuitable to screen 30 compounds within a reasonable period. Cells were treated with these compounds throughout the duration of the assay and cellular senescence was monitored with two markers: accumulation of SA-β-galactosidase (SA-β-Gal) activity, and the decrease in expression of HAS2 (hyaluronic acid synthase 2), a previously reported marker of skin senescence.
(§6) Figure 2 (A) Schematic representation of the protocol for senescence induction using UVB irradiation. Cells were treated -/+ the compounds from day 1 to 7 after seeding, irradiated with UVB on days 2 and 5 and harvested for analysis on day 7. […] (C) Phase-contrast (left column) and bright field (right column) microscope images of SA-β-Gal staining showing non-irradiated cells, UVB-irradiated cells non-treated and treated with Gallic acid or Shikimic acid at the indicated concentrations. (D) Percentage of SA-β-Gal positive cells and (E) Relative HAS2 mRNA levels in non-irradiated cells, UVB-irradiated cells and UVB-irradiated cells treated with Gallic acid or Shikimic acid at the indicated concentrations. Student T-test, *p<0.05, **p<0.01, ***p<0.001.
as §1
(§7) Senescence induction by UVB irradiation For the non-irradiation control conditions, HDF were […]
(§8) After 24h, culture medium was removed and well plates. After 24h, culture medium was removed replaced by fresh cell culture medium containing the and replaced with fresh cell culture medium containing compounds at different concentrations. After 24h, the compounds at different concentrations. […]
(§9) cell culture medium was removed, and cells were cells/plate in fresh cell culture medium containing the irradiated at 25 mJ/cm2 of UVB light (312 nm) in a Bio- compound in 6-well plates. After 3 days, cells were […]
(§10) amount of PBS. PBS was then removed and fresh cell fresh cell culture medium containing the compound in culture medium with the compound was added to each 6-well plates. After 2 days, cells were processed well. After 3 days, cells were irradiated again under the according to the qPCR, β-Gal staining, apoptosis, cell same conditions. After 2 days, cells were processed cycle or immunofluorescence protocols. according to the qPCR, β-Gal staining, apoptosis, cell cycle or immunofluorescence protocols.

| SMILES | β-Gal |
| --- | --- |
| O=C(O)CCCC[C@@H]1CCSS1 (racemic) [Lipoic acid] | - |
| C=C1CC[C@@H]2[C@](C)(CO)[C@H](O)CC[C@@]2(C)[C@@H]1C/C=C1/C(=O)OC[C@H]1O [Andrographolide] | - |
| C[N+](C)(C)CC(=O)O [Betaine] | - |
| NCCC(=O)N[C@@H](Cc1cnc[nH]1)C(=O)O [Carnosine] | - |
| C/C=C/C(=O)C1=C(C)C=CCC1(C)C [Damascenone] | - |
| CC1=NCC[C@@H](C(=O)O)N1 [Ectoine] | - |
| COc1cc(/C=C/C(=O)O)ccc1O [Ferulic acid] | - |
| C=C[C@@H]1C2=CCOC(=O)C2=CO[C@H]1O[C@@H]1O[C@H](CO)[C@@H](O)[C@H](O)[C@H]1O [Gentiopicrin] | - |
| COc1cc(-c2coc3cc4c(c(OC)c3c2=O)OCO4)cc(OC)c1OC [Irisflorentin] | - |

same assay, conditions: UVB-irradiated HDF

| SMILES | SA-β-Gal accumulation/staining |
| --- | --- |
| O=C(O)CCCC[C@@H]1CCSS1 (racemic) [Lipoic acid] | did not change the level of SA-β-Gal staining |
| NCCC(=O)N[C@@H](Cc1cnc[nH]1)C(=O)O [Carnosine] | did not change the level of SA-β-Gal staining |
| COc1cc(/C=C/C(=O)O)ccc1O [Ferulic acid] | did not change the level of SA-β-Gal staining |

same assay, conditions: UVB-irradiated HDF, SA-β-Gal and HAS2 markers

| SMILES | prevention of UV-induced cellular senescence |
| --- | --- |
| O=Cc1ccc(O)c(O)c1 [3,4-dihydroxybenzaldehyde] | did not prevent cellular senescence |
| C=C1CC[C@@H]2[C@](C)(CO)[C@H](O)CC[C@@]2(C)[C@@H]1C/C=C1/C(=O)OC[C@H]1O [Andrographolide] | did not prevent cellular senescence |

system: HAS2 (hyaluronic acid synthase 2); test: UVB-induced senescence assay: HAS2 gene expression (qPCR); type: cell-based, human; conditions: HDF, 2 cycles of UVB, compound day 1 to 7, Figure 2B; further: key: ↑: increase; ↓: decrease; hyphens that indicate no effect (-)
Protocol: as §5, §6
RNA was extracted from cell pellets using the Total RNA Purification Kit (Norgen, Canada), according to the manufacturer’s protocol. Extracted RNA was quantified using a NanoDrop® ND-1000 UV-Vis Spectrophotometer (Thermo Fisher Scientific, USA) and 300 ng of RNA were retrotranscribed to cDNA using the PrimeScriptTM RT reagent kit (Takara Bio Inc., Japan). cDNA was diluted 1/10 in ultrapure water and qPCR mix was prepared by adding cDNA (12 ng), SYBR green supermix (Bio Rad, USA), forward and reverse primers (0.2μM). The primers and their respective sequences are listed in Supplementary Table 1. qPCR protocol included one step at 95° C for 30 s, 40 cycles at 95° C for 10s, and 60° C for 1min. The results were analyzed with Bio-Rad CFX Manager software. BACT was used as a housekeeping gene to normalize gene expression.
as §7, §8, §9, §10

| SMILES | HAS2 expression |
| --- | --- |
| C=C1CC[C@@H]2[C@](C)(CO)[C@H](O)CC[C@@]2(C)[C@@H]1C/C=C1/C(=O)OC[C@H]1O [Andrographolide] | - |
| C[N+](C)(C)CC(=O)O [Betaine] | - |
| C/C=C/C(=O)C1=C(C)C=CCC1(C)C [Damascenone] | - |
| CC1=NCC[C@@H](C(=O)O)N1 [Ectoine] | - |
| C=C[C@@H]1C2=CCOC(=O)C2=CO[C@H]1O[C@@H]1O[C@H](CO)[C@@H](O)[C@H](O)[C@H]1O [Gentiopicrin] | - |
